In paper PMC9851200, “Multiparameter phenotypic screening for endogenous TFEB and TFE3 translocation identifies novel chemical series modulating lysosome function” (Autophagy, 2022):

Assays:
Format in all cases: binding
[1] = biological target: kinases (KINOMEscan panel) (Homo sapiens, UniProt P00519, F317L); details: NEW KINOMEscan; for KINOMEscan ABL1(F317L)-phosphorylated: kinase ABL1(F317L)-phosphorylated
[2] = biological target: kinases (KINOMEscan panel) (Homo sapiens, UniProt P27448); details: MARK3; NEW KINOMEscan
[3] = biological target: kinases (KINOMEscan panel) (Homo sapiens, UniProt P12931); details: SRC; NEW KINOMEscan
[4] = biological target: kinases (KINOMEscan panel) (Homo sapiens, UniProt Q9H0K1); details: kinase SIK2; NEW KINOMEscan
[5] = biological target: T1, kinases (KINOMEscan panel) (Homo sapiens, UniProt Q9NRM7); details: NEW KINOMEscan
T1 sequence (Q9NRM7 1-1088): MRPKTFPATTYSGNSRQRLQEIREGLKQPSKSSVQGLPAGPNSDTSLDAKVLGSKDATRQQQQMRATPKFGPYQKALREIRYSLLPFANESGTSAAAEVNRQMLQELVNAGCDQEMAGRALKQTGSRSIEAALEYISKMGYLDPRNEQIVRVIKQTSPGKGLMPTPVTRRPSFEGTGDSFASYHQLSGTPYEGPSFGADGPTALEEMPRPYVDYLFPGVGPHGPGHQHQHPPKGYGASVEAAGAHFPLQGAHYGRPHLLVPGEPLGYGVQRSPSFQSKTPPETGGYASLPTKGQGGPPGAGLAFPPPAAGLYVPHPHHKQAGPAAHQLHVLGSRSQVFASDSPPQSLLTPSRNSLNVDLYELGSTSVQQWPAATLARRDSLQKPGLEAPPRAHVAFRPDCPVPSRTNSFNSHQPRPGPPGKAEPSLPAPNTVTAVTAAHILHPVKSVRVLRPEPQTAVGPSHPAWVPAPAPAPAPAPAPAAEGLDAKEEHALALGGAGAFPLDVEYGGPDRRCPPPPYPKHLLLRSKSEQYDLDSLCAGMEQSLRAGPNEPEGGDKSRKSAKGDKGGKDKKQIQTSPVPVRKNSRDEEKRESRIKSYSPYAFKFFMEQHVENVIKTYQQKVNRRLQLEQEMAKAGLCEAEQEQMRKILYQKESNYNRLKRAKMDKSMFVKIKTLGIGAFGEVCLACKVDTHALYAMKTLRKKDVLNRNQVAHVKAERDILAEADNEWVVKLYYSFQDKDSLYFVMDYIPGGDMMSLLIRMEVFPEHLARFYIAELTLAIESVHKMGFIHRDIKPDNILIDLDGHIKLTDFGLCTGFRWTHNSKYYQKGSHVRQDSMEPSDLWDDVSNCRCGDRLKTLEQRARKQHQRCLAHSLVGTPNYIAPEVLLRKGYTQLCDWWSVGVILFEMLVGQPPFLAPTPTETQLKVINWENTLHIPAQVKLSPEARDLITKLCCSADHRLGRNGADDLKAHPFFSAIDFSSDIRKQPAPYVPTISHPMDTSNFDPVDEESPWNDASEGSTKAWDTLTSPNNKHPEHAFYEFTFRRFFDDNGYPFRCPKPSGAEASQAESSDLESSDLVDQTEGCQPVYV

[6] = biological target: kinases (KINOMEscan panel) (Homo sapiens, UniProt P54764); details: EPHA4; NEW KINOMEscan
[7] = biological target: kinases (KINOMEscan panel) (Homo sapiens, UniProt P36888, D835H); details: kinase FLT3(D835H); NEW KINOMEscan
[8] = biological target: T2, kinases (KINOMEscan panel) (Homo sapiens, UniProt P51817); details: kinase PRKX; NEW KINOMEscan
T2 sequence (P51817 1-358): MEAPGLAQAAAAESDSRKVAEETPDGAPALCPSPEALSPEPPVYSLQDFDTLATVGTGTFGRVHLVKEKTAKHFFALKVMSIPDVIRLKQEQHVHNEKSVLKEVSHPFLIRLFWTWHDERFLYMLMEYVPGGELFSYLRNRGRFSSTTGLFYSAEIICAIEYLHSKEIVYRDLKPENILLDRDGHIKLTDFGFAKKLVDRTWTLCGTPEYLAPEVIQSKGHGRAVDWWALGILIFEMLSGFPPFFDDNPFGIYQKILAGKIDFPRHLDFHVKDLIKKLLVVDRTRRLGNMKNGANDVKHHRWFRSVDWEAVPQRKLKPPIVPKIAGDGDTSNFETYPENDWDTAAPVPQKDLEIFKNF

[9] = biological target: kinases (KINOMEscan panel) (Homo sapiens, UniProt P00533, DEL752-759); details: EGFR(S752-I759del); NEW KINOMEscan
[10] = biological target: kinases (KINOMEscan panel) (Homo sapiens, UniProt Q8N5S9); details: CAMKK1; NEW KINOMEscan
[11] = biological target: kinases (KINOMEscan panel) (Homo sapiens, UniProt Q9HC98); details: kinase NEK6; NEW KINOMEscan
[12] = biological target: T3, kinases (KINOMEscan panel) (Homo sapiens, UniProt P35626); details: GRK3; NEW KINOMEscan
T3 sequence (P35626 1-688): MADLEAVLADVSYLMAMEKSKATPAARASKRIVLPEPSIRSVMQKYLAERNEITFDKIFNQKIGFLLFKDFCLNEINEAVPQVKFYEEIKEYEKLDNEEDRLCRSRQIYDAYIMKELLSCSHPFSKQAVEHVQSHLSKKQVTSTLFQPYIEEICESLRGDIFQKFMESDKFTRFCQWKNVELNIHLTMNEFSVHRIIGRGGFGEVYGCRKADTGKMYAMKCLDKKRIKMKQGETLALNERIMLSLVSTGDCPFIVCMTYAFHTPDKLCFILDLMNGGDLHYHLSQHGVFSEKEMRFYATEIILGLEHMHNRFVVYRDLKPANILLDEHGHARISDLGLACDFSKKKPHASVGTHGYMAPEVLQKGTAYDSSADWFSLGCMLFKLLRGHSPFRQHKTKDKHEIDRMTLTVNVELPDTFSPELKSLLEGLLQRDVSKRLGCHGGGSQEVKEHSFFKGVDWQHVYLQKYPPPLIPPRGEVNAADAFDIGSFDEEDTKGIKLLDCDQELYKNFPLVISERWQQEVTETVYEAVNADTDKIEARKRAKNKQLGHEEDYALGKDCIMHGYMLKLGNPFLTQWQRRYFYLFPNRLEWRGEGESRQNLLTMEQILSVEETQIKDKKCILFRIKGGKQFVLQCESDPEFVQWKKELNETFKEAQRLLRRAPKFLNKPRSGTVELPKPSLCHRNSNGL

Chain of kinases (KINOMEscan panel) (Homo sapiens, UniProt P00519, F317L) (P00519 whole entry F317L): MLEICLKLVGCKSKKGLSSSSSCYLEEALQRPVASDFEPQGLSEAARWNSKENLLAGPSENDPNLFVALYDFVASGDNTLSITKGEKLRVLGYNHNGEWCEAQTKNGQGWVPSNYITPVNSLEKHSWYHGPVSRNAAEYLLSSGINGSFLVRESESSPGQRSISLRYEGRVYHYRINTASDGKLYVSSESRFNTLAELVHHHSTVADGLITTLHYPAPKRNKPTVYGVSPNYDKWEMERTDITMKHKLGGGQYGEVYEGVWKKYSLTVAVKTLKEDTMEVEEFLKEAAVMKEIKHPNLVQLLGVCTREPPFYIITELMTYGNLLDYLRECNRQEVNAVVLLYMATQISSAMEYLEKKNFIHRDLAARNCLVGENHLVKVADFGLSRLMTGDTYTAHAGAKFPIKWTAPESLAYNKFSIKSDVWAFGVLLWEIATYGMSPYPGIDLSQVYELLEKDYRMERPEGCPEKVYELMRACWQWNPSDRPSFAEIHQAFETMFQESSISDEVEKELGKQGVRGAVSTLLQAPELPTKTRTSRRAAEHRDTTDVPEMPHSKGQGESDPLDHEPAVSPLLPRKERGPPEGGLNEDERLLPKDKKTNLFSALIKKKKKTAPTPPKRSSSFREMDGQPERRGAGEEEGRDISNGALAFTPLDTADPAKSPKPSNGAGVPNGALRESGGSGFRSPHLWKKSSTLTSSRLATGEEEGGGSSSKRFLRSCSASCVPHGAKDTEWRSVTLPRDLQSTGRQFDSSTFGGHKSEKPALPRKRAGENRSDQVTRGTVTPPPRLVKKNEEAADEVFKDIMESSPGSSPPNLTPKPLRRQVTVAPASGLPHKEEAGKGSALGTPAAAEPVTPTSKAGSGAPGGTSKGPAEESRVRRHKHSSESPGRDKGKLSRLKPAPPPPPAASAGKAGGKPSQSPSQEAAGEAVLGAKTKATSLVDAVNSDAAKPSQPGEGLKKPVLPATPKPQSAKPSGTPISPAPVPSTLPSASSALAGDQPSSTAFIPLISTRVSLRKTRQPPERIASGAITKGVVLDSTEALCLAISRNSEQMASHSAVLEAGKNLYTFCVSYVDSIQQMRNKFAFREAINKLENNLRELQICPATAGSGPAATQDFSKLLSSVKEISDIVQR
Chain of kinases (KINOMEscan panel) (Homo sapiens, UniProt Q9HC98) (Q9HC98 whole entry): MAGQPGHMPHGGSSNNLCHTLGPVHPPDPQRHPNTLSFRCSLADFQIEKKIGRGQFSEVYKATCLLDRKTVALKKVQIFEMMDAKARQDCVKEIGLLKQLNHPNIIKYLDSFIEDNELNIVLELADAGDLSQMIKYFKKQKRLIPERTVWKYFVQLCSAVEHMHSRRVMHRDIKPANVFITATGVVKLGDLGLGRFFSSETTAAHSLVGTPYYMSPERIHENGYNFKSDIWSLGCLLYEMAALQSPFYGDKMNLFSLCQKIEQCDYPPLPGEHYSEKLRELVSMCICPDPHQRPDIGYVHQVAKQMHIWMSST
Chain of kinases (KINOMEscan panel) (Homo sapiens, UniProt P12931) (P12931 whole entry): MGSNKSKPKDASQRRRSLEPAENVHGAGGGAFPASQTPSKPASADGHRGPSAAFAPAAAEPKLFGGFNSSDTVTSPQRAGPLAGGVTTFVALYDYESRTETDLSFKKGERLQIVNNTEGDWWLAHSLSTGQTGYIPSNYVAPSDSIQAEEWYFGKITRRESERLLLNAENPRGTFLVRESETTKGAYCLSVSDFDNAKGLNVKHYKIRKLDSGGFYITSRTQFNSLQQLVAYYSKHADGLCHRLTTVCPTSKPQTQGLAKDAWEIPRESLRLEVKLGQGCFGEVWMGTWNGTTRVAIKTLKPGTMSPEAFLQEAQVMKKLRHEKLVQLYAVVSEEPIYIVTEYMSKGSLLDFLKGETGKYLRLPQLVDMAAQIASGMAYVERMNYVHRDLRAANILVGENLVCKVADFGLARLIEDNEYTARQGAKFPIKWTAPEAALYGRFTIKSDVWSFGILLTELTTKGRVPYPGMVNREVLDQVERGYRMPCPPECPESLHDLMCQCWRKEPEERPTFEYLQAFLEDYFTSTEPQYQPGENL
Chain of kinases (KINOMEscan panel) (Homo sapiens, UniProt P00533, DEL752-759) (P00533 with tags, fused parts or gaps DEL752-759): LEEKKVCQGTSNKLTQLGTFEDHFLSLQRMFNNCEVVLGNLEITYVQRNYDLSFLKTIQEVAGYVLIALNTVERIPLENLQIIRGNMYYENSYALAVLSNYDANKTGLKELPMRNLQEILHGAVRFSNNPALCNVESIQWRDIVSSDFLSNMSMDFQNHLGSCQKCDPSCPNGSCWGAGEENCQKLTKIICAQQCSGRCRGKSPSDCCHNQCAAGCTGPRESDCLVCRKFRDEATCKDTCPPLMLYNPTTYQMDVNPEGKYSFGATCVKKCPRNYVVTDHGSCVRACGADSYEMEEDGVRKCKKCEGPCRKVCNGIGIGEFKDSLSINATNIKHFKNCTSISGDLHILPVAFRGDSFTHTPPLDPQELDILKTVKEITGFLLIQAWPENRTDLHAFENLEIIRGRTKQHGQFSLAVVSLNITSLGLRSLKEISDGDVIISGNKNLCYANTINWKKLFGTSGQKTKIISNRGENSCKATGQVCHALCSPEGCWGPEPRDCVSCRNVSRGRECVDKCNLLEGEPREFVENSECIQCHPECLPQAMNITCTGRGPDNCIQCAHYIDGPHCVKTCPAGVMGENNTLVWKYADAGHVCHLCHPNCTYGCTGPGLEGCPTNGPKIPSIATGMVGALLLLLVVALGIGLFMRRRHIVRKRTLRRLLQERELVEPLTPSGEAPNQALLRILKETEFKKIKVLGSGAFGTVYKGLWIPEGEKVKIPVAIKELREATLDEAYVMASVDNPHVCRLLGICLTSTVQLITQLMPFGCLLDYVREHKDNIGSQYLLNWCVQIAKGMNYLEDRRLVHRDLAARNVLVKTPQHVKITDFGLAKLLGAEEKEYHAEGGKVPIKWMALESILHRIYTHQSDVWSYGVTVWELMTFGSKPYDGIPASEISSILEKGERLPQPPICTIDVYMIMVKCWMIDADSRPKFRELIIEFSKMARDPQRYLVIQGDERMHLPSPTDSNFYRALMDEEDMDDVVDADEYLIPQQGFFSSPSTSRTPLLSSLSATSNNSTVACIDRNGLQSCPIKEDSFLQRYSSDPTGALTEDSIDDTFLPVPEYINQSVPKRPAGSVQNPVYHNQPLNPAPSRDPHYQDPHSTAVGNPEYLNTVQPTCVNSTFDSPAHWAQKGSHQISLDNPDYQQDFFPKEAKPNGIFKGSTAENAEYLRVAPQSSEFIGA
Chain of kinases (KINOMEscan panel) (Homo sapiens, UniProt P27448) (P27448 whole entry): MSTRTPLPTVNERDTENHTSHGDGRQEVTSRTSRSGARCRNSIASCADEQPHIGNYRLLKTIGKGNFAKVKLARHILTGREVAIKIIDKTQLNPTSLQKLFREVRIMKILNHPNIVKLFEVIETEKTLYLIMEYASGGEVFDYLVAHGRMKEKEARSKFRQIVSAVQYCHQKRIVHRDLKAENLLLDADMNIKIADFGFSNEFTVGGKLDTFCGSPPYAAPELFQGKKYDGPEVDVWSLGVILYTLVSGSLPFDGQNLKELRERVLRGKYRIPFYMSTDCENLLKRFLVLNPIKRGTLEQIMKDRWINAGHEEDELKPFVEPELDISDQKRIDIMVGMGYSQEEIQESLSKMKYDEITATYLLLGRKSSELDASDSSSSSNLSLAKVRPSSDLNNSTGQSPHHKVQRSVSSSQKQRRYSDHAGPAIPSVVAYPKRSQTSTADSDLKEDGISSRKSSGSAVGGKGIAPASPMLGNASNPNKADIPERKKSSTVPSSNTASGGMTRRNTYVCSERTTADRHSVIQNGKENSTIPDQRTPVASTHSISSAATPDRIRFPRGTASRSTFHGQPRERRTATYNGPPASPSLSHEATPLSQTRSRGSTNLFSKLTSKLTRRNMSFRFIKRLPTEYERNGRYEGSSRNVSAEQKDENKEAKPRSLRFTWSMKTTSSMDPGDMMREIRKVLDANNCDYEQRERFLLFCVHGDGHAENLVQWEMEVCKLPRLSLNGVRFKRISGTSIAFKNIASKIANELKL
Chain of kinases (KINOMEscan panel) (Homo sapiens, UniProt Q8N5S9) (Q8N5S9 whole entry): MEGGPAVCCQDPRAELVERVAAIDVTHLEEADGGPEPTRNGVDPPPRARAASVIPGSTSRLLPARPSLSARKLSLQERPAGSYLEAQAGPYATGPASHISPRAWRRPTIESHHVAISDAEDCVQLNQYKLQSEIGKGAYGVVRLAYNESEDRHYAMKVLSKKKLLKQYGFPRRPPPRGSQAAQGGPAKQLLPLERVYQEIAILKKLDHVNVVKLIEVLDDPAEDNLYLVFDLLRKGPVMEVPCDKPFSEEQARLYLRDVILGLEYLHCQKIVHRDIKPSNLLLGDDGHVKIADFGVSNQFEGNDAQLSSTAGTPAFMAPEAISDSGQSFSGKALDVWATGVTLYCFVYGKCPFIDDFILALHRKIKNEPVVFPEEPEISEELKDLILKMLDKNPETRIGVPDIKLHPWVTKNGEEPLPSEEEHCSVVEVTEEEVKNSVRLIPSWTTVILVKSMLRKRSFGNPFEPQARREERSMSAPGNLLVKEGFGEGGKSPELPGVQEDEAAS

SMILES | KINOMEscan ABL1(F317L)-nonphosphorylated [1] | KINOMEscan ABL1(F317L)-phosphorylated [1] | KINOMEscan MARK3 [2] | KINOMEscan SRC [3] | KINOMEscan SIK2 [4] | KINOMEscan LATS2 [5] | KINOMEscan EPHA4 [6] | KINOMEscan FLT3(D835H) [7] | KINOMEscan PRKX [8] | KINOMEscan EGFR(S752-I759del) [9] | KINOMEscan CAMKK1 [10] | KINOMEscan NEK6 [11] | KINOMEscan GRK3 [12]
Cc1cccc(-c2nc(Nc3ccc4nn(C)cc4c3)c3ccccc3n2)n1 [NK167] | 30 | 0 | 0 | 13 | 0 | 19 | 0 | 0 | 0 | 0 | 0 | 0 | 0
Cc1cccc(-c2nc(N(C)c3ccc4ncsc4c3)c3ccccc3n2)n1 [NK-161] | 18 | 0 | 0 | 18 | 0 | 26 | 5 | 4 | 7 | 0 | 9 | 6 | 25
